From patent US20090253644A1, “Radiosensitizer” (TOYO SUISAN KAISHA, LTD., priority 2004, published 2009)
Several values for one entry are separate records, joined by “and”; a condition that tells them apart may be missing. Equal values may be shown once. Entries after “also recorded” stand apart in the source; their conditions may differ.

Legend:
[1] = test system: angiogenesis (tube formation); test: Assay by angiogenesis kit (KZ-1000), tube formation; format: cell-based
Procedure: The anti-angiogenic effect obtained by combined use of 20 μM of α-SQMG C18:0 administration and 4 Gy of ^60Co γ-ray irradiation was investigated using an angiogenesis kit (“angiogenesis kit KZ-1000” of Kurabo Industries Ltd.).
A drug named Suramin is the known substance as a drug suppressing angiogenesis, and it is known that its action is to inhibit a growth factor receptor of a vascular endothelial cell. In the present Example, Suramin was used as a positive control at 50 μM.
As described above, the “theoretical additive point of combined use” is calculated by multiplication, and the theoretical value is compared with an actually measured value.

[2] = test system: human lung cancer cells (A549 cells); test: Animal experiment: A549 tumor-transplanted nude mice, tumor growth delay with X-ray irradiation; format: in vivo; conditions: Exp. Ex. 1-7: X-ray 4 Gy day 0 and day 3, 1 mg/kg i.p. once a day day 0 to 4
Procedure: In the present Experimental Example, an experiment was performed in the same manner as in the aforementioned Experimental Examples except that human lung cancer cells (A549 cells) were transplanted into a nude mouse. Details of the experiment will be described below.
Four nude mice (eight weeks old) were randomly assigned to each of four groups. 2.0×10^6 human lung cancer cells (A549 cells) were suspended in PBS (−), and the suspension was transplanted subcutaneously into a right thigh of each mouse. After 45 days, when tumor volume became about 50 mm^3, each mouse was subjected to treatment according to each group. As a radiosensitizer, α-SQMG C18:0 was used as in the aforementioned Experimental Examples. In a single use group of irradiation, X-ray was irradiated two times (at the time of treatment initiation (day 0) and on day 3 after the treatment initiation) at a dose of 4 Gy. In a single use group of α-SQMG C18:0 administration, α-SQMG C18:0 was intraperitoneally administered at a concentration of 1 mg/kg once a day at a total of 5 times from the time of treatment initiation (day 0) to day 4. […] Thereafter, a short diameter and a long diameter of a tumor were measured with a micrometer caliper over a period of 20 days. Tumor volume was calculated according to the following equation, and the tumor growth delaying effect was compared. […]

[3] = test system: Human esophageal cancer cells (TE-8 cells); test: Animal experiment: TE-8 tumor-transplanted nude mice, tumor growth delay with X-ray irradiation; format: in vivo; conditions: Exp. Ex. 1-5: X-ray 8 Gy day 0 and day 4
Procedure: Five nude mice (eight weeks old) were randomly assigned to each of four groups. Human esophageal cancer cells (TE-8 cells) were transplanted to each mouse in the same manner as the above Experimental Example 1-1. When tumor volume reached 50 mm^3, α-SQMG C18:0 administration and irradiation treatment were performed. In a single use group of irradiation, each mouse was irradiated with X-ray at a dose of 8 Gy two times on day 0 and day 4. In a single use group of α-SQMG C18:0 administration, the sensitizer was intraperitoneally administered at a concentration of 1 mg/kg once a day at a total of 5 times from day 0 to day 4. In a combined use group, each mouse of the group was treated with both of irradiation and α-SQMG C18:0 administration. In the control group, neither irradiation nor α-SQMG C18:0 administration was performed. Thereafter, tumor volume was measured over a period of 51 days in the same manner as the above Experimental Example 1-1.
In addition, an enhancement ratio (ER) was obtained according to the method described in Experimental Example 1-2. […] For this reason, an enhancement ratio was calculated from the number of days until tumor volume reaches 400 mm^3. As a result, ER was 3.25, and it was shown that synergistic effect was extremely high.

SAS cells = test: Colony assay on SAS cells; format: cell-based, human; conditions: same colony assay as Exp. Ex. 2-1 and 2-2
[4] = test system: Bovine aortic endothelial cells (BAEC); test: Colony assay on vascular endothelial cells with 60Co γ-ray irradiation; format: cell-based; design: key to actually measured SF value of combined use group / actually measured SF value of combined use: SF = colonies/seeded cells×(PE/100); PE = control colony formation rate; conditions: for SF (cell surviving fraction), administration alone: 24 hours, no irradiation
Procedure: Bovine aortic endothelial cells (BAEC) were appropriately seeded on a petri dish, and adhesion of cells was confirmed after 2 to 3 hours. In a group of α-SQMG C18:0 administration alone and a combined use group, the cells were treated with 10 μM of α-SQMG C18:0. After 24 hours, a medium was exchanged in all test groups, and 4 Gy of ^60Co γ-ray was irradiated in a group of irradiation alone and a combined use group. After the cells were cultured in a CO2 incubator at 37° C. for 10 to 12 days, formed colonies were fixed with formalin, and stained with a crystal violet staining solution. On each plate, the number of colonies consisting of about 50 or more cells was counted, and cell surviving fraction (SF) was obtained according to the following equation.
SF (cell surviving fraction)=number of colonies/number of seeded cells×(PE/100)
Herein, PE (plating efficiency) represents a colony formation rate (%) on a plate of a control.
An experiment was performed three times, and an average of them was calculated.
The same experiment as that of Experimental Example 2-1 was performed except that a radiation dose 6 Gy was irradiated in place of 4 Gy used in Experimental Example 2-1. […]

[5] = 4 Gy 60Co γ-ray + α-SQMG C18:0 20 μM or Suramin 50 μM

## CCCCCCCCCCCCCCCCCC(=O)OCC(O)CO[C@H]1O[C@H](CS(=O)(=O)[O-])[C@@H](O)[C@H](O)[C@H]1O.[Na+] (stereo partly drawn) [α-SQMG C18:0, 3-O-(6-deoxy-6-sulfo-α-D-glucopyranosyl)-1-O-stearoyl-glycerol sodium salt]
[1]; [5]
  tube formation rate, Actually measured value, combined use: 0.0762
  tube formation rate, Theoretical value (theoretical additive point of combined use): 0.467
[1]; α-SQMG C18:0 20 μM, Suramin 50 μM, no irradiation
  tube formation rate, use alone: 0.7229
[2]
  enhancement ratio (ER): cannot be calculated
[2]; sodium salt, 1 mg/kg
  anti-tumor effect (tumor volume), combined use with irradiation: anti-tumor effect exceeding the anti-tumor effect attained by irradiation alone; also recorded: increase in tumor volume is scarcely seen
[3]; 1 mg/kg i.p. day 0 to 4, calculated from days until tumor volume reaches 400 mm^3
  enhancement ratio (ER): 3.25
[3]; 1 mg/kg i.p. once a day day 0 to 4
  anti-tumor effect (tumor volume), combined use with irradiation: anti-tumor effect far exceeding the anti-tumor effect attained by irradiation
SAS cells
  cell proliferation suppressing effect on SAS cells: did not exert a cell proliferation suppressing effect
[4]; 5 μM + 2 Gy 60Co γ-ray
  actually measured SF value of combined use: 0.1370
  theoretical additive point of combined use (SF): 0.6012
[4]; 5 μM
  SF (cell surviving fraction), administration alone: 1.0094
[4]; 10 μM + 2 Gy 60Co γ-ray
  actually measured SF value of combined use: 0.0644
  theoretical additive point of combined use (SF): 0.5620
[4]; 10 μM + 4 Gy 60Co γ-ray
  actually measured SF value of combined use group: 0.0640
  theoretical additive point of combined use (SF): 0.0974
[4]; 10 μM + 6 Gy 60Co γ-ray
  actually measured SF value of combined use group: 0.0180
  theoretical additive point of combined use (SF): 0.0505
[4]; 10 μM, sodium salt
  SF (cell surviving fraction), administration alone: 0.616 and 0.9433
[4]; 10 μM, 4 Gy and/or 6 Gy
  synergistic effect of combined use with radiation on suppression of proliferation of vascular endothelial cells: considerably great synergistic effect
[4]; Exp. Ex. 2-5: 0 to 25 μM, 0 Gy
  cell proliferation suppressing effect, treatment alone: cell proliferation suppressing effect is not obtained
[4]; Exp. Ex. 2-5: 0 to 25 μM, 2 to 8 Gy 60Co γ-ray
  effect of irradiation on suppression of cell proliferation, combined use: increased
